According to patent US11590139B2, “Substituted aminopurine compounds, compositions thereof, and methods of treatment therewith” (Signal Pharmaceuticals, LLC, priority 2014, dated 2023):

Test system: Lox-IMVI melanoma cell line
Assay: Lox-IMVI anti-proliferative assay (growth inhibition, Cell Titer-Glo)
Type: cell-based, human
Settings: Homo sapiens; Lox-IMVI melanoma cell line, anti-proliferative assay; read-out: Activity (IC50 activity level)
Method in brief: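 Growth inhibition is assessed over 72 h in RPMI + 10% FBS at 0.2% DMSO, with ATP-based luminescence used as the viability measure. IC50 is fitted from normalized dose-response data.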

IC50 [µM]	SMILES
> 1	NC(=O)[C@H]1CC[C@@H](n2c(Nc3c(F)cc(F)cc3Cl)nc3cnc(NC4CCC(c5ncno5)CC4)nc32)CC1 (stereo partly shown) [Example 677, (1s,4s)-4-(2-(4-(1,2,4-oxadiazol-5-yl)cyclohexylamino)-8-(2-chloro-4,6-difluorophenylamino)-9H-purin-9-yl)cyclohexanecarboxamide]
> 1	NC(=O)[C@H]1CC[C@@H](n2c(Nc3c(Cl)cc(Cl)cc3Cl)nc3cnc(NC4CCC(c5ncno5)CC4)nc32)CC1 (stereo partly shown) [Example 678, (1s,4s)-4-(2-(4-(1,2,4-oxadiazol-5-yl)cyclohexylamino)-8-(2,4,6-trichlorophenylamino)-9H-purin-9-yl)cyclohexanecarboxamide]
> 1	NC(=O)[C@H]1CC[C@@H](n2c(Nc3c(Cl)cc(F)cc3Cl)nc3cnc(NC4CCC(c5ncno5)CC4)nc32)CC1 (stereo partly shown) [Example 679, (1s,4s)-4-(2-(4-(1,2,4-oxadiazol-5-yl)cyclohexylamino)-8-(2,6-dichloro-4-fluorophenylamino)-9H-purin-9-yl)cyclohexanecarboxamide]
> 1	N#Cc1cc(F)c(Nc2nc3cnc(NC4CCC(c5ncno5)CC4)nc3n2[C@H]2CC[C@@H](C(N)=O)CC2)c(Cl)c1 (stereo partly shown) [Example 680, (1s,4s)-4-(2-(4-(1,2,4-oxadiazol-5-yl)cyclohexylamino)-8-(2-chloro-4-cyano-6-fluorophenylamino)-9H-purin-9-yl)cyclohexanecarboxamide]
> 1	N#Cc1cc(Cl)c(Nc2nc3cnc(NC4CCC(c5ncno5)CC4)nc3n2[C@H]2CC[C@@H](C(N)=O)CC2)c(Cl)c1 (stereo partly shown) [Example 681, (1s,4s)-4-(2-(4-(1,2,4-oxadiazol-5-yl)cyclohexylamino)-8-(2,6-dichloro-4-cyanophenylamino)-9H-purin-9-yl)cyclohexanecarboxamide]
< 0.25	N#Cc1cc(F)c(Nc2nc3cnc(N[C@@H]4CCC(O)C4)nc3n2[C@H]2CC[C@@H](C(N)=O)CC2)c(Cl)c1 (stereo partly drawn) [Example 682, (1S,4s)-4-(8-(2-chloro-4-cyano-6-fluorophenylamino)-2-((1R,3R)-3-hydroxycyclopentylamino)-9H-purin-9-yl)cyclohexanecarboxamide]
< 0.25	N#Cc1cc(Cl)c(Nc2nc3cnc(N[C@@H]4CCC(O)C4)nc3n2[C@H]2CC[C@@H](C(N)=O)CC2)c(Cl)c1 (stereo partly drawn) [Example 683, (1S,4s)-4-(8-(2,6-dichloro-4-cyanophenylamino)-2-((1R,3R)-3-hydroxycyclopentylamino)-9H-purin-9-yl)cyclohexanecarboxamide]
0.5 to 1	N#Cc1cc(Cl)c(Nc2nc3cnc(N[C@@H]4CCC[C@@H](O)C4)nc3n2[C@H]2CC[C@@H](C(N)=O)CC2)c(Cl)c1 [Example 684, (1S,4s)-4-(8-(2,6-dichloro-4-cyanophenylamino)-2-((1R,3R)-3-hydroxycyclohexylamino)-9H-purin-9-yl)cyclohexanecarboxamide]
0.5 to 1	N#Cc1cc(F)c(Nc2nc3cnc(N[C@@H]4CCC[C@@H](O)C4)nc3n2[C@H]2CC[C@@H](C(N)=O)CC2)c(Cl)c1 [Example 685, (1S,4s)-4-(8-(2-chloro-4-cyano-6-fluorophenylamino)-2-((1R,3R)-3-hydroxycyclohexylamino)-9H-purin-9-yl)cyclohexanecarboxamide]
0.5 to 1	N#Cc1cc(Cl)c(Nc2nc3cnc(N[C@H]4CCC[C@@H](O)C4)nc3n2[C@H]2CC[C@@H](C(N)=O)CC2)c(Cl)c1 [Example 686, (1R,4s)-4-(8-(2,6-dichloro-4-cyanophenylamino)-2-((1S,3R)-3-hydroxycyclohexylamino)-9H-purin-9-yl)cyclohexanecarboxamide]
> 1	N#Cc1cc(F)c(Nc2nc3cnc(N[C@H]4CCC[C@@H](O)C4)nc3n2[C@H]2CC[C@@H](C(N)=O)CC2)c(Cl)c1 [Example 687, (1R,4s)-4-(8-(2-chloro-4-cyano-6-fluorophenylamino)-2-((1S,3R)-3-hydroxycyclohexylamino)-9H-purin-9-yl)cyclohexanecarboxamide]
0.25 to 0.5	N#Cc1cc(Cl)c(Nc2nc3cnc(N[C@H]4CCC[C@H](O)C4)nc3n2[C@H]2CC[C@@H](C(N)=O)CC2)c(Cl)c1 [Example 688, (1R,4s)-4-(8-(2,6-dichloro-4-cyanophenylamino)-2-((1S,3S)-3-hydroxycyclohexylamino)-9H-purin-9-yl)cyclohexanecarboxamide]
0.25 to 0.5	N#Cc1cc(F)c(Nc2nc3cnc(N[C@H]4CCC[C@H](O)C4)nc3n2[C@H]2CC[C@@H](C(N)=O)CC2)c(Cl)c1 [Example 689, (1R,4s)-4-(8-(2-chloro-4-cyano-6-fluorophenylamino)-2-((1S,3S)-3-hydroxycyclohexylamino)-9H-purin-9-yl)cyclohexanecarboxamide]
< 0.25	NC(=O)[C@H]1CC[C@@H](n2c(Nc3c(Cl)cc(Br)cc3Cl)nc3cnc(NC4CCOCC4)nc32)CC1 [Example 690, (1s,4s)-4-(8-(4-bromo-2,6-dichlorophenylamino)-2-(tetrahydro-2H-pyran-4-ylamino)-9H-purin-9-yl)cyclohexanecarboxamide]
0.5 to 1	NC(=O)[C@H]1CC[C@@H](n2c(Nc3c(Cl)cc(Br)cc3Cl)nc3cnc(NC4CCC(F)(F)CC4)nc32)CC1 [Example 691, (1s,4s)-4-(8-(4-bromo-2,6-dichlorophenylamino)-2-(4,4-difluorocyclohexylamino)-9H-purin-9-yl)cyclohexanecarboxamide]

The next lines start with the compound.

SMILES	IC50 [µM]
N#Cc1cc(F)c(Nc2nc3cnc(NC[C@@H]4CCCC[C@H]4O)nc3n2[C@H]2CC[C@@H](C(N)=O)CC2)c(Cl)c1 [Example 664, (1R,4s)-4-(8-(2-chloro-4-cyano-6-fluorophenylamino)-2-(((1S,2R)-2-hydroxycyclohexyl)methylamino)-9H-purin-9-yl)cyclohexanecarboxamide]	> 1
N#Cc1cc(Cl)c(Nc2nc3cnc(NC[C@@H]4CCCC[C@H]4O)nc3n2[C@H]2CC[C@@H](C(N)=O)CC2)c(Cl)c1 [Example 665, (1R,4s)-4-(8-(2,6-dichloro-4-cyanophenylamino)-2-(((1S,2R)-2-hydroxycyclohexyl)methylamino)-9H-purin-9-yl)cyclohexanecarboxamide]	> 1
C[C@]1(C(N)=O)CC[C@@H](n2c(Nc3c(Cl)cc(C#N)cc3Cl)nc3cnc(NC4CC(F)(F)C4)nc32)CC1 [Example 666, (1s,4s)-4-(8-(2,6-dichloro-4-cyanophenylamino)-2-(3,3-difluorocyclobutylamino)-9H-purin-9-yl)-1-methylcyclohexanecarboxamide]	< 0.25
NC(=O)[C@H]1CC[C@@H](n2c(Nc3c(F)cc(Cl)cc3Cl)nc3cnc(NC4CCC(N5C(=O)CCC5=O)CC4)nc32)CC1 (stereo partly shown) [Example 667, (1s,4s)-4-(8-(2,4-dichloro-6-fluorophenylamino)-2-(4-(2,5-dioxopyrrolidin-1-yl)cyclohexylamino)-9H-purin-9-yl)cyclohexanecarboxamide]	> 1
N#Cc1cc(Cl)c(Nc2nc3cnc(NC4CCC(N5C(=O)CCC5=O)CC4)nc3n2[C@H]2CC[C@@H](C(N)=O)CC2)c(Cl)c1 (stereo partly shown) [Example 668, (1s,4s)-4-(8-(2,6-dichloro-4-cyanophenylamino)-2-(4-(2,5-dioxopyrrolidin-1-yl)cyclohexylamino)-9H-purin-9-yl)cyclohexanecarboxamide]	> 1
N#Cc1cc(F)c(Nc2nc3cnc(N[C@H]4CCOC[C@H]4F)nc3n2[C@H]2CC[C@@H](C(N)=O)CC2)c(F)c1 [Example 669, (1R,4s)-4-(8-(4-cyano-2,6-difluorophenylamino)-2-((3S,4S)-3-fluorotetrahydro-2H-pyran-4-ylamino)-9H-purin-9-yl)cyclohexanecarboxamide]	0.5 to 1
N#Cc1cc(F)c(Nc2nc3cnc(N[C@H]4CCOC[C@H]4F)nc3n2[C@H]2CC[C@@H](C(N)=O)CC2)c(Cl)c1 [Example 670, (1R,4s)-4-(8-(2-chloro-4-cyano-6-fluorophenylamino)-2-((3S,4S)-3-fluorotetrahydro-2H-pyran-4-ylamino)-9H-purin-9-yl)cyclohexanecarboxamide]	< 0.25
NC(=O)[C@H]1CC[C@@H](n2c(Nc3c(F)cc(Cl)cc3F)nc3cnc(N[C@@H]4CCOC[C@H]4F)nc32)CC1 [Example 671, (1S,4s)-4-(8-(4-chloro-2,6-difluorophenylamino)-2-((3S,4R)-3-fluorotetrahydro-2H-pyran-4-ylamino)-9H-purin-9-yl)cyclohexanecarboxamide]	< 0.25
NC(=O)[C@H]1CC[C@@H](n2c(Nc3c(F)cc(Cl)cc3F)nc3cnc(N[C@H]4CCOC[C@H]4F)nc32)CC1 [Example 672, (1R,4s)-4-(8-(4-chloro-2,6-difluorophenylamino)-2-((3S,4S)-3-fluorotetrahydro-2H-pyran-4-ylamino)-9H-purin-9-yl)cyclohexanecarboxamide]	< 0.25
C[C@]1(C(N)=O)CC[C@@H](n2c(Nc3c(F)cc(F)cc3Cl)nc3cnc(NC4CCOCC4)nc32)CC1 [Example 673, (1s,4s)-4-(8-(2-chloro-4,6-difluorophenylamino)-2-(tetrahydro-2H-pyran-4-ylamino)-9H-purin-9-yl)-1-methylcyclohexanecarboxamide]	< 0.25
C[C@]1(C(N)=O)CC[C@@H](n2c(Nc3c(F)cc(Cl)cc3Cl)nc3cnc(NC4CCOCC4)nc32)CC1 [Example 674, (1s,4s)-4-(8-(2,4-dichloro-6-fluorophenylamino)-2-(tetrahydro-2H-pyran-4-ylamino)-9H-purin-9-yl)-1-methylcyclohexanecarboxamide]	< 0.25
C[C@]1(C(N)=O)CC[C@@H](n2c(Nc3c(Cl)cc(F)cc3Cl)nc3cnc(NC4CCOCC4)nc32)CC1 [Example 675, (1s,4s)-4-(8-(2,6-dichloro-4-fluorophenylamino)-2-(tetrahydro-2H-pyran-4-ylamino)-9H-purin-9-yl)-1-methylcyclohexanecarboxamide]	< 0.25
NC(=O)[C@H]1CC[C@@H](n2c(Nc3c(F)cc(Cl)cc3Cl)nc3cnc(NC4CCC(c5ncno5)CC4)nc32)CC1 (stereo partly shown) [Example 676, (1s,4s)-4-(2-(4-(1,2,4-oxadiazol-5-yl)cyclohexylamino)-8-(2,4-dichloro-6-fluorophenylamino)-9H-purin-9-yl)cyclohexanecarboxamide]	> 1
